Where two headings read alike, the source gives them in different places.
How the values were obtained:
[1] = Acute toxicity (lethal dose 50) in the mouse; conditions: in vivo
Description: The acute toxicity of the deriatives of the invention were studied by oral administration (P.O) to the mouse (10 animals, 5 males and 5 females per dose) and calculation of the lethal dose 50 (LD 50) in accordance with the method of Litchfield and Wilcoxon (J. Pharmacol., 96, 99-113 (1949)). Table 1 gives the LD 50 values of the derivatives of the invention.
In certain cases, the LD 50 was also studied after intraperitoneal injection (I.P.) of the derivatives.

[2] = tested on: isolated guinea pig auricle; assay: Maximum stimulation frequency test on isolated guinea pig auricle; conditions: Cavia porcellus; 10 mg/l; read-out: Δ% MFS (decrease of the maximum frequency followed)
Procedure: The maximum frequency test carried out studied the maximum stimulation frequency which can cause contraction of an isolated guinea pig auricle placed in a solution containing a derivative of the invention. The measurement was carried out before (control period) and then after introduction of the derivative into the solution.

anesthetized dog = assay: Hemodynamic effects on the anesthetized dog; format: in vivo; conditions: for (dp/dt)l/p, percentage of variation / Cardiac flow, percentage of variation / Cardiac frequency, percentage of variation / Contraction force of the myocardium, percentage of variation / Systolic arterial pressure, percentage of variation / Systolic volume, percentage of variation: Example 2 series, vs pretreatment
Procedure: Cardiovascular tolerance was studied on the isolated guinea pig auricle, on the anesthetized rat and on the anesthetized dog.
On the anesthetized dog, the results obtained with respect to hemodynamic tolerance are summarized in Table 2 below which indicates the percentages of variation of the hemodynamic parameters in relation to the pre-treatment control period for the derivatives of Examples 2 and 4.
The parameters were recorded by means of:
Catheters connected to pressure sensors (arterial pressure, left ventricular pressure and its first derivative dp/dt);
Electromagnetic flowmeter on the aorta (aortic flow);
Strain gauge placed on the left ventricular myocardium (force of myocardiac contraction).
The derivatives were injected intraveneously, one dose approximately every 30 minutes and their effects were measured 20 minutes after the completion of the injection (length of the injection 2 minutes).

rabbit cornea = assay: Local contact anesthesia on the rabbit cornea; format: in vivo; conditions: solution at 0.25% or 1% by weight, eyewash instillation
Description: For example, the derivatives described in Examples 2, 3, 4, 6, 7 and 9 are local anesthetics (100% anesthesia) in a solution at 0.25% or 1% by weight.

[3] = tested on: ventricular arrhythmias induced by aconitine in the anesthetized rat; assay: Antiarrhythmic test with aconitine on the rat; format: in vivo
Procedure: The derivatives of the invention were used in the test with aconitine on the rat. For this test, the anesthetized rat was intoxicated by an intravenous perfusion of aconitine (solution of aconitine nitrate: 15 mg/l; speed of perfusion: 0.4 ml/min) while its electrocardiogram was recorded permanently. During perfusion at constant speed, the time necessary for the appearance of ventricular arrhythmias, successively ventricular extrasystoles (ESV), ventricular tachycardium (TV) and ventricular fibrillation (FV) was measured.
The animals were divided into a control group (untreated) and treated group (different doses). The results are expressed as a percentage of prolonging the time of the appearance of the arrhythmias in the treated groups in relation to the control group. This prolongation of arrhythmia appearance time therefore corresponds to myocardiac protection against the arrhythmic effects of aconitine.

[4] = tested on: anoxic ventricular fibrillation in mice; assay: Cardiac antifibrillatory activity on the mouse (Lawson test); format: in vivo; conditions: ip, intraperitoneal, 10 minutes before chloroform, read-out: ED 50 (protects half the mice against anoxic ventricular fibrillation)
Procedure: Cardiac antifibrillatory activity of the derivatives of the invention has been verified on the mouse using the Lawson test, in accordance with the method described by J. W. Lawson, J. Pharmacol. Exp. Therp. 160, 22-31 (1968), and C. Narcisse et al., Ann. Pharm. Fr. 37, 325-330 (1979).
The mice (20 per dose) received an intraperitoneal injection of the derivative 10 minutes before being placed in a chloroform saturated atmosphere. As soon as respiratory arrest occurred, the thorax was opened (5 to 10 seconds) and the state of the heart was checked: presence or absence of ventricular fibrillation. The efficacy dose 50 (ED 50) of the derivative being studied is the dose which protects half the mice against anoxic ventricular fibrillation.

[5] = ip, intraperitoneal (I.P.), read-out: LD 50 I.P.
[6] = oral (P.O.), 5 males and 5 females per dose, read-out: LD 50 P.O.
[7] = anesthetized dog, i.v., cumulative dose
[8] = read-out: Prolongation of time of appearance of ventricular extrasystoles (ESV)
[9] = read-out: Prolongation of time of appearance of ventricular fibrillation (FV)
[10] = read-out: Prolongation of time of appearance of ventricular tachycardium (TV)

SMILES: CN(C)CCCOc1cc(-c2ccc(Cl)cc2)n[nH]1 [Example 1, 3-p-Chlorophenyl-5-dimethylaminopropoxy-pyrazole]
- LD50 [1, 5]: 250 to 500 mg/kg
- LD50 [1, 6]: 1000 mg/kg
- inhibition at 10 µg/mL [2]: 30%

SMILES: Cc1c(-c2ccccc2)n[nH]c1OCCN1CCCC1 [Example 2, 3-Phenyl-4-methyl-5-pyrrolidinoethoxy-pyrazole]
- LD50 [1, 6]: 500 mg/kg
- (dp/dt)l/p, percentage of variation (anesthetized dog; i.v., dose 0.5 mg/kg): 0%
- Cardiac flow, percentage of variation (anesthetized dog; i.v., dose 0.5 mg/kg): 0%
- Cardiac frequency, percentage of variation (anesthetized dog; i.v., dose 0.5 mg/kg): 0%
- Contraction force of the myocardium, percentage of variation (anesthetized dog; i.v., dose 0.5 mg/kg): 0%
- Systolic arterial pressure, percentage of variation (anesthetized dog; i.v., dose 0.5 mg/kg): +4%
- Systolic volume, percentage of variation (anesthetized dog; i.v., dose 0.5 mg/kg): 0%
- (dp/dt)l/p, percentage of variation (anesthetized dog; i.v., dose +1 mg/kg): -7%
- Cardiac flow, percentage of variation (anesthetized dog; i.v., dose +1 mg/kg): -5%
- Cardiac frequency, percentage of variation (anesthetized dog; i.v., dose +1 mg/kg): -8%
- Contraction force of the myocardium, percentage of variation (anesthetized dog; i.v., dose +1 mg/kg): 0%
- Systolic arterial pressure, percentage of variation (anesthetized dog; i.v., dose +1 mg/kg): 0%
- Systolic volume, percentage of variation (anesthetized dog; i.v., dose +1 mg/kg): +3%
- (dp/dt)l/p, percentage of variation (anesthetized dog; i.v., dose +3 mg/kg): -30%
- Cardiac flow, percentage of variation (anesthetized dog; i.v., dose +3 mg/kg): -5%
- Cardiac frequency, percentage of variation (anesthetized dog; i.v., dose +3 mg/kg): -8%
- Contraction force of the myocardium, percentage of variation (anesthetized dog; i.v., dose +3 mg/kg): -20%
- Systolic arterial pressure, percentage of variation (anesthetized dog; i.v., dose +3 mg/kg): 0%
- Systolic volume, percentage of variation (anesthetized dog; i.v., dose +3 mg/kg): +3%
- (dp/dt)l/p, percentage of variation (anesthetized dog; i.v., dose +5 mg/kg): -30%
- Cardiac flow, percentage of variation (anesthetized dog; i.v., dose +5 mg/kg): -20%
- Cardiac frequency, percentage of variation (anesthetized dog; i.v., dose +5 mg/kg): -8%
- Contraction force of the myocardium, percentage of variation (anesthetized dog; i.v., dose +5 mg/kg): -20%
- Systolic arterial pressure, percentage of variation (anesthetized dog; i.v., dose +5 mg/kg): -8%
- Systolic volume, percentage of variation (anesthetized dog; i.v., dose +5 mg/kg): -12%
- (dp/dt)l/p, percentage of variation (anesthetized dog; i.v., first dose of +10 mg/kg): -38%
- Cardiac flow, percentage of variation (anesthetized dog; i.v., first dose of +10 mg/kg): -37%
- Cardiac frequency, percentage of variation (anesthetized dog; i.v., first dose of +10 mg/kg): -8%
- Contraction force of the myocardium, percentage of variation (anesthetized dog; i.v., first dose of +10 mg/kg): -10%
- Systolic arterial pressure, percentage of variation (anesthetized dog; i.v., first dose of +10 mg/kg): -12%
- Systolic volume, percentage of variation (anesthetized dog; i.v., first dose of +10 mg/kg): -31%
- (dp/dt)l/p, percentage of variation (anesthetized dog; i.v., second dose of +10 mg/kg): -46%
- Cardiac flow, percentage of variation (anesthetized dog; i.v., second dose of +10 mg/kg): -45%
- Cardiac frequency, percentage of variation (anesthetized dog; i.v., second dose of +10 mg/kg): -8%
- Contraction force of the myocardium, percentage of variation (anesthetized dog; i.v., second dose of +10 mg/kg): -20%
- Systolic arterial pressure, percentage of variation (anesthetized dog; i.v., second dose of +10 mg/kg): -20%
- Systolic volume, percentage of variation (anesthetized dog; i.v., second dose of +10 mg/kg): -40%
- maximum decrease of force of ventricular myocardiac contractions (anesthetized dog; after injection of 4.5 mg/kg to 29 mg/kg): -20%
- Cardiac frequency (result in words) (anesthetized dog; anesthetized dog, i.v.): drops moderately
- Systolic arterial pressure (result in words) (anesthetized dog; anesthetized dog, i.v.): drops moderately
- force of ventricular myocardiac contractions (result in words) (anesthetized dog; anesthetized dog, i.v.): decreases
- cumulative dose after which the decrease of systolic arterial pressure appears (anesthetized dog; [7]): > 4.5 mg/kg
- cumulative dose at which a 20% drop of cardiac flow is reached (anesthetized dog; [7]): greater than 9 mg/kg
- inhibition at 10 µg/mL [2]: 56%
- local anesthesia (rabbit cornea): 100%
- change in vivo at 10 mg/kg [3, 8]: 32%
- change in vivo at 10 mg/kg [3, 9]: 44%
- change in vivo at 10 mg/kg [3, 10]: 30%

SMILES: Clc1ccc(-c2cc(OCCCN3CCCCC3)[nH]n2)cc1 [Example 3, 3-p-Chlorphenyl-5-piperidinopropoxy-pyrazole]
- LD50 [1, 6]: 700 mg/kg
- ED50 [4]: 35 mg/kg
- inhibition at 10 µg/mL [2]: 53%
- local anesthesia (rabbit cornea): 100%
- change in vivo at 10 mg/kg [3, 8]: 6%
- change in vivo at 10 mg/kg [3, 9]: 46%
- change in vivo at 10 mg/kg [3, 10]: 28%

SMILES: c1ccc(-c2cc(OCCN3CCOCC3)[nH]n2)cc1 [Example 5, 3-Phenyl-5-morpholinoethoxy-pyrazole]
- LD50 [1, 6]: 1000 mg/kg
- ED50 [4]: 79 mg/kg
- inhibition at 10 µg/mL [2]: 12%

SMILES: Clc1ccc(-c2cc(OCCN3CCCCC3)[nH]n2)cc1 [Example 6]
- LD50 [1, 6]: 500 mg/kg
- inhibition at 10 µg/mL [2]: 46%
- local anesthesia (rabbit cornea): 100%
- change in vivo at 3 mg/kg [3, 8]: 13%
- change in vivo at 3 mg/kg [3, 9]: 18%
- change in vivo at 3 mg/kg [3, 10]: 21%

SMILES: CN(C)CCCOc1cc(-c2ccccc2)[nH]n1 [Example 8]
- LD50 [1, 6]: 1000 mg/kg

SMILES: Cc1c(-c2ccccc2)n[nH]c1OCCN1CCCCC1 [Example 11]
- LD50 [1, 5]: 184 mg/kg
- LD50 [1, 6]: 250 to 500 mg/kg
- ED50 [4]: 42.5 mg/kg
- inhibition at 10 µg/mL [2]: 52%
- change in vivo at 10 mg/kg [3, 8]: 10%
- change in vivo at 10 mg/kg [3, 9]: 18%
- change in vivo at 10 mg/kg [3, 10]: 11%

SMILES: c1ccc(-c2cc(OCCN3CCCC3)[nH]n2)cc1 [Example 12]
- LD50 [1, 6]: 500 to 1000 mg/kg
- inhibition at 10 µg/mL [2]: 35%

SMILES: c1ccc(-c2cc(OCCCN3CCCCC3)[nH]n2)cc1 [Example 13]
- LD50 [1, 6]: 125 to 250 mg/kg
- inhibition at 10 µg/mL [2]: 44%

SMILES: Cc1c(-c2ccccc2)n[nH]c1OCCCN1CCCCC1 [Example 14]
- LD50 [1, 6]: 250 mg/kg
- Cardiac frequency (result in words) (anesthetized dog; anesthetized dog, i.v.): drops moderately
- Systolic arterial pressure (result in words) (anesthetized dog; anesthetized dog, i.v.): drops moderately
- force of ventricular myocardiac contractions (result in words) (anesthetized dog; anesthetized dog, i.v.): does not vary significantly
- ED50 [4]: 62 mg/kg
- inhibition at 10 µg/mL [2]: 40%

SMILES: Cc1c(-c2ccccc2)n[nH]c1OCCCN(C)C [Example 15]
- LD50 [1, 6]: 500 to 1000 mg/kg
- inhibition at 10 µg/mL [2]: 40%

SMILES: Cc1c(-c2ccc(Cl)cc2)n[nH]c1OCCN1CCOCC1 [Example 16]
- LD50 [1, 5]: 125 to 250 mg/kg
- LD50 [1, 6]: 500 to 1000 mg/kg
- inhibition at 10 µg/mL [2]: 28%

SMILES: Cc1c(-c2ccc(Cl)cc2)n[nH]c1OCCCN(C)C [Example 17]
- LD50 [1, 5]: 250 to 500 mg/kg
- LD50 [1, 6]: 500 to 1000 mg/kg
- inhibition at 10 µg/mL [2]: 32%

SMILES: Cc1c(-c2ccc(Cl)cc2)n[nH]c1OCCN1CCCC1 [Example 18]
- LD50 [1, 6]: 750 mg/kg
- inhibition at 10 µg/mL [2]: 45%
- change in vivo at 10 mg/kg [3, 8]: 2%
- change in vivo at 10 mg/kg [3, 9]: 0%
- change in vivo at 10 mg/kg [3, 10]: 6%

SMILES: Cc1c(-c2ccc(Cl)cc2)n[nH]c1OCCCN1CCCCC1 [Example 19]
- LD50 [1, 5]: 62 to 125 mg/kg
- LD50 [1, 6]: 250 mg/kg
- Cardiac frequency (result in words) (anesthetized dog; anesthetized dog, i.v.): does not change
- Systolic arterial pressure (result in words) (anesthetized dog; anesthetized dog, i.v.): drops moderately
- force of ventricular myocardiac contractions (result in words) (anesthetized dog; anesthetized dog, i.v.): decreases
- cumulative dose at which a 20% drop of cardiac flow is reached (anesthetized dog; [7]): greater than 4 mg/kg
- ED50 [4]: 21.5 mg/kg
- inhibition at 10 µg/mL [2]: 52%
- change in vivo at 10 mg/kg [3, 8]: 15%
- change in vivo at 10 mg/kg [3, 9]: 35%
- change in vivo at 10 mg/kg [3, 10]: 15%
